Experimental data taken from patent US20180111893A1, “POLYCATIONIC AMPHIPHILES AND POLYMERS THEREOF AS ANTIMICROBIAL AGENTS AND METHODS USING SAME” (Temple University-Of The Commonwealth System of Higher …, priority 2015, published 2018).

Assays:
[1] = tested on: MRSA biofilms (S. aureus USA300-0114); test: Minimum biofilm eradication concentration (MBEC), regrowth assay; format: cell-based, Staphylococcus aureus; parameters: MBEC MRSA: unit not given here; details: Table 5; regrowth OD under 0.1 (italics: OD < 0.5)
Procedure: (§1) A regrowth assay was used to establish the MBEC of a compound to evaluate the antibiofilm activity. See also H. Ceri, M. Olson, D. Morck, D. Storey, R. Read, A. Buret, B. Olson, Methods Enzymol. 2001, 337, 377, which is incorporated by reference herein in its entirety.
(§2) To each well of a flat-bottomed 96-well plate (Corning 3370), 8 μL of overnight bacterial culture was brought to a volume of 200 μL with fresh media (BHI for MSSA and MRSA). Plates were incubated statically for 24 hours at 37° C. to establish biofilms. After 24 hours, the wells were carefully emptied by inverting the plate and gently shaking. A pre-mixed solution of media and compound stock solution was added to each well and plates were incubated at 37° C. 16 hours after pre-established biofilms were treated with compound, the media from each well was removed, biofilms were washed three times with 200 μL PBS to remove planktonic cells, and biofilms were incubated overnight at 37° C. in 200 μL of fresh media to allow any viable cells to continue growing. The wells were then vigorously pipetted to resuspend the biofilm cells and the OD at 595 nm was measured using a plate reader (POLARstar Omega, BMG Labtech). Biofilms reaching a final OD of less than 0.1 were considered eradicated and the lowest concentration of antibiotic corresponded to the MBEC. Four replicates were completed for each concentration of compound as well as positive and negative controls.

[2] = tested on: Staphylococcus aureus (MSSA) biofilms; test: as above; format: cell-based; parameters: MBEC MSSA: unit not given here; details: Table 5; regrowth OD under 0.1 (italics: OD < 0.5)
Procedure: as §1, §2

[3] = tested on: community-acquired methicillin-resistant Staphylococcus aureus CA-MRSA (USA300-0114); test: Minimum inhibitory concentration (MIC); format: cell-based; parameters: MIC MRSA: unit not given here; details: for MIC CA-MRSA: Table 6
Procedure: (§3) As used herein, the term “minimum inhibitory concentration (MIC)” refers to the lowest concentration of an antimicrobial agent that will inhibit the visible growth of a microorganism after overnight incubation. MIC values against bacteria, for example, the Gram-positive Staphylococcus aureus and Enterococcus faecalis and the Gram-negative Escherichia coli and Pseudomonas aeruginosa were determined by standard methods. See also P. A. Wayne, Methods for Dilution Antimicrobial Tests for Bacteria that Grow Aerobically; Approved Standard, Ninth Edition, 2012, CLSI Document M07-A9, Vol. 32 No. 2, which is incorporated by reference herein in its entirety.
(§4) Compounds were serially diluted two-fold from a 10% DMSO/aqueous stock solution to yield twelve test concentrations. Overnight S. aureus, E. faecalis, E. coli, P. aeruginosa, CA-MRSA, and HA-MRSA cultures diluted to ca. 10^6 cfu/mL in Mueller-Hinton media and 100 μL were inoculated into each well of a U-bottom 96-well plate (BD Biosciences, BD351177) containing 100 μL of compound solution. Plates were incubated statically at 37° C. for 72 hours upon which time wells were evaluated visually for bacterial growth. The MIC was determined as the lowest concentration of compound resulting in no bacterial growth visible to the naked eye, based on the majority of three independent experiments. Positive and negative DMSO/aqueous solution and media controls were conducted for each trial. See Peng et al., 2011, Chem. Comm. 47:4896-4898.
as §4, with “trial.” for “trial. See Peng et al., 2011, Chem. Comm. 47:4896-4898.”

[4] = tested on: Staphylococcus aureus (SA; MSSA SH1000); test: Minimum inhibitory concentration (MIC); format: cell-based; parameters: MIC MSSA: unit not given here; details: for MIC SA: Table 6
Procedure: as §3, §4
as §4, with “trial.” for “trial. See Peng et al., 2011, Chem. Comm. 47:4896-4898.”

[5] = tested on: Escherichia coli (MC4100); test: Minimum inhibitory concentration (MIC); format: cell-based
Procedure: as §3, §4
as §4, with “trial.” for “trial. See Peng et al., 2011, Chem. Comm. 47:4896-4898.”

[6] = tested on: Pseudomonas aeruginosa (PAO1); test: Minimum inhibitory concentration (MIC); format: cell-based
Procedure: as §3, §4
as §4, with “trial.” for “trial. See Peng et al., 2011, Chem. Comm. 47:4896-4898.”

[7] = tested on: Enterococcus faecalis (OG1RF); test: Minimum inhibitory concentration (MIC); format: cell-based; details: Table 6
Procedure: as §3, §4
as §4, with “trial.” for “trial. See Peng et al., 2011, Chem. Comm. 47:4896-4898.”

[8] = tested on: hospital-acquired methicillin-resistant Staphylococcus aureus HA-MRSA (ATCC 33591); test: Minimum inhibitory concentration (MIC); format: cell-based; details: Table 6
Procedure: as §3, §4
as §4, with “trial.” for “trial. See Peng et al., 2011, Chem. Comm. 47:4896-4898.”

Structure (SMILES)	MBEC MRSA [1]	MBEC MSSA [2]	MIC MRSA ([3]; Table 5, S. aureus USA300-0114)	MIC MSSA ([4]; Table 5, S. aureus SH1000)	MIC EC ([5]; Table 5, E. coli MC4100)	MIC PA ([6]; Table 5, P. aeruginosa PAO1)	MIC CA-MRSA [3]	MIC SA [4]	MIC EF [7]	MIC EC ([5]; Table 6)	MIC HA-MRSA [8]	MIC PA ([6]; Table 6)
CCCCCCCCCCCCCCCC[N+]1(C)CCN(C)CCN(C)CC1.[Br-] [C-16,0,0]	>200	>200										
CCCCCCCCCCCCCCCC[N+]1(C)CC[N+](C)(C)CC[N+](C)(C)CC1 [C-16,1,1]	200	200										
CCCCCCCCCCCCCCCCCC[N+]1(C)CCN(C)CCN(C)CC1.[Br-] [C-18,0,0]	>200	200										
CCCCCCCCCCCCCCCCCC[N+]1(C)CC[N+](C)(C)CC[N+](C)(C)CC1 [C-18,1,1]	>200	>200										
CCCCCCCCCCCCCCCCCCCC[N+]1(C)CCN(C)CCN(C)CC1.[Br-] [C-20,0,0]	>200	>200										
CCCCCCCCCCCCCCCCCCCC[N+]1(C)CC[N+](C)(C)CC[N+](C)(C)CC1 [C-20,1,1]	>200	>200										
CCCCCCCCCCC[N+](C)(C)CCN1CC[N+](C)(CCCCCCCCCCC)CC1 [P-11,0,11]	200	100										
CCCCCCCCCCCC[N+](C)(C)CCN1CC[N+](C)(CCCCCCCCCCCC)CC1 [P-12,0,12]	200	200										
CCCCCCCCCC[N+](C)(C)CCCN(CC[N+](C)(C)CCCCCCCCCC)CC[N+](C)(C)CCCCCCCCCC [T-10,10,10]	200	100										
CCCCCCCCCCC[N+](C)(C)CCN(CC[N+](C)(C)CCCCCCCCCCC)CC[N+](C)(C)CCCCCCCCCCC [T-11,11,11]	>200	200	1	0.5	1 mm	2 mm						
CCCCCCCCCCC[N+](C)(C)CCC[N+](CCC[N+](C)(C)CCCCCCCCCCC)(CCC[N+](C)(C)CCCCCCCCCCC)Cc1ccccc1 [sT-11,11,11,Bn]							≤0.25 µM	0.25 µM	0.5 µM	0.5 µM	≤0.25 µM	1 µM
CCCCCCCCCCCC[N+](C)(C)CCCN(CCC[N+](C)(C)CCCCCCCCCCCC)CCC[N+](C)(C)CCCCCCCCCCCC [sT-12,12,12,0]							0.5 µM	0.5 µM	1 µM	1 µM	1 µM	4 µM
CCCCCCCCCCCC[N+](C)(C)CCC[N+](C)(CCC[N+](C)(C)CCCCCCCCCCCC)CCC[N+](C)(C)CCCCCCCCCCCC [sT-12,12,12,1]							0.5 µM	1 µM	1 µM	1 µM	2 µM	4 µM
C=CC[N+](CCC[N+](C)(C)CCCCCCCCCCCC)(CCC[N+](C)(C)CCCCCCCCCCCC)CCC[N+](C)(C)CCCCCCCCCCCC [sT-12,12,12,3A]							≤0.25 µM	1 µM	0.5 µM	0.5 µM	0.5 µM	2 µM
CCCCCCCCCCCC[N+](C)(C)CCC[N+](CCC[N+](C)(C)CCCCCCCCCCCC)(CCC[N+](C)(C)CCCCCCCCCCCC)Cc1ccccc1 [sT-12,12,12,Bn]							0.5 µM	1 µM	0.5 µM	0.5 µM	0.5 µM	2 µM
CCCCCCCCCCCCC[N+](C)(C)CCCN(CCC[N+](C)(C)CCCCCCCCCCCCC)CCC[N+](C)(C)CCCCCCCCCCCCC [sT-13,13,13,0]							0.5 µM	1 µM	1 µM	1 µM	1 µM	8 µM
CCCCCCCCCCCCC[N+](C)(C)CCC[N+](C)(CCC[N+](C)(C)CCCCCCCCCCCCC)CCC[N+](C)(C)CCCCCCCCCCCCC [sT-13,13,13,1]							0.5 µM	2 µM	1 µM	1 µM	1 µM	4 µM
C=CC[N+](CCC[N+](C)(C)CCCCCCCCCCCCC)(CCC[N+](C)(C)CCCCCCCCCCCCC)CCC[N+](C)(C)CCCCCCCCCCCCC [sT-13,13,13,3A]							1 µM	2 µM	1 µM	1 µM	1 µM	4 µM
CCCCCCCCCCCCCC[N+](C)(C)CCCN(CCC[N+](C)(C)CCCCCCCCCCCCCC)CCC[N+](C)(C)CCCCCCCCCCCCCC [sT-14,14,14,0]							0.5 µM	1 µM	2 µM	4 µM	2 µM	16 µM
CCCCCCCCCCCCCC[N+](C)(C)CCC[N+](C)(CCC[N+](C)(C)CCCCCCCCCCCCCC)CCC[N+](C)(C)CCCCCCCCCCCCCC [sT-14,14,14,1]							2 µM	4 µM	2 µM	4 µM	2 µM	32 µM
C=CC[N+](CCC[N+](C)(C)CCCCCCCCCCCCCC)(CCC[N+](C)(C)CCCCCCCCCCCCCC)CCC[N+](C)(C)CCCCCCCCCCCCCC [sT-14,14,14,3A]							2 µM	2 µM	2 µM	4 µM	2 µM	32 µM
CCCCCCCCCCCCCCCC[N+](C)(C)CCCN(CCC[N+](C)(C)CCCCCCCCCCCCCCCC)CCC[N+](C)(C)CCCCCCCCCCCCCCCC.[Br-].[Br-].[Br-] [sT-16,16,16,0]							4 µM	8 µM	16 µM	16 µM	16 µM	32 µM
C=CC[N+](CCC[N+](C)(C)CCCCCCCCCCCCCCCC)(CCC[N+](C)(C)CCCCCCCCCCCCCCCC)CCC[N+](C)(C)CCCCCCCCCCCCCCCC [sT-16,16,16,3A]							4 µM	4 µM	8 µM	16 µM	16 µM	63 µM
CCCCCCCCCCCCCCCCCC[N+](C)(C)CCCN(CCC[N+](C)(C)CCCCCCCCCCCCCCCCCC)CCC[N+](C)(C)CCCCCCCCCCCCCCCCCC [sT-18,18,18,0]							4 µM	8 µM	16 µM	32 µM	32 µM	63 µM
C=CC[N+](CCC[N+](C)(C)CCCCCCCCCCCCCCCCCC)(CCC[N+](C)(C)CCCCCCCCCCCCCCCCCC)CCC[N+](C)(C)CCCCCCCCCCCCCCCCCC [sT-18,18,18,3A]							2 µM	2 µM	32 µM	32 µM	16 µM	125 µM
